Data set [1] relates to HL-1 cardiac cells. As to the kind of experiment: CytoTox-Glo cytotoxicity assay (cell viability). The format is cell-based. The following applies: CytoTox-Glo assay in 100 µM solutions after 24 h incubation. On the procedure: Cell viability was assessed using CytoTox-Glo™ Cytotoxicity Assay according to the manufacturing procedure (Promega GmbH). Briefly, HL-1 cardiac cells were cultivated for 24 h in black-walled, clear-bottom 96-well micro-plates (Corning) covered with fibronectin in DMEM, containing different concentrations of the tested compound (10,000 cells/well). Luminescence of a luminogenic peptide substrate was measured before and after addition of the lysis reagent (digitonin). The viable cell contribution was determined by a subtractive method. 0.1% DMSO treated cell were taken as a control.
(§1) The membrane permeability of the derivatives was determined using cell-free transport models (PermeaPad®, innoME GmbH), and permeability rates (Pe), which are a measure of how fast a compound can cross a membrane, were established (Table 1).

Data set [2] is described as follows: Membrane permeability, PermeaPad plate (cell-free transport model). Format: in vitro ADME. The following applies: for Pe: permeability rate, room temperature, 24 hours. On the procedure: Membrane permeability was assessed using PermeaPad® Plate according to the manufacturing procedure (innoME GmbH, Espelkamp, Germany). Briefly, 200 µl water was added into acceptor plate. 200 µl of 100 - 500 µM test compound in water was added directly to the well membranes of the donor plate. The donor plate contains a biomimetic membrane for simulating passive mass transfer through different barriers in the body. Then the donor plate was placed into the acceptor plate wells and incubated at room temperature for 24 hours in dark. To determine peak absorbance of test compounds, absorbance spectra of acceptor solutions and initial solutions for each test compound were read out. The Permeability Rate (Pe) was calculated using the formula: Pe = C × −ln(1−(ODA)/(ODE)) cm/s, [formula]
where ODA is the absorbance of acceptor solution, ODE is the absorbance of the standard solution; if the compound is able to permeabilize the membrane and fully reach equilibrium, 250 µM will be the final concentration of solution in the donor and acceptor wells. The coefficient C was calculated using the formula: C = (VD × VA)/((VD+VA) × Area × time), [formula] where VA - acceptor volume (cm^3), VD - donor volume (cm^3), membrane area 0.24 cm^2, time is 86,400 s.
as §1

Data set [3] addresses T1, SERCA2a (Mus musculus, UniProt O55143).
T1 construct: host or cells: HL-1 cardiac cells
The data set can be described thus: Caffeine-induced Ca2+ release assay on HL-1 cells. Format: cell-based. More on the design: key to SERCA2a HL-1 effect class: +++: a strong effect, comparable to or greater than that of a known compounds at a given concentration (25 µM in RyR2 R-CEPIA1er assay, 10 µM in caffeine assay and on microsomal membrane vesicles); ++: moderate effect; +: observable effect; -: no effect. The following applies: for SERCA2a HL-1 effect class: 10 µM in caffeine assay; for effect in caffeine-induced Ca^2+ release assay, in words: HL-1 cells incubated 2 h with compound; for effect in caffeine-induced Ca^2+ release assay, in words / EC50: 10 mM caffeine; for EC50: caffeine-induced Ca2+ release, range after the semicolon is not explained. On the procedure:
HL-1 cardiac cells (SCC065, Merck KGaA, Darmstadt, Germany) were cultivated in Claycomb's Medium (51800C, Merck KGaA, Darmstadt, Germany), supplemented with Glutamax, 10% fetal bovine serum, 0.9% Penicillin/Streptomycin and 0.1 mM Noradrenaline (Merck KGaA, Darmstadt, Germany) on fibronectin/gelatin (Merck KGaA, Darmstadt, Germany) coated culture bottles or plates two days before plating.
HL-1 cardiac cells (50000 per well) were cultivated for 24 h in black-walled, clear-bottom 96-well micro-plates (Corning, Amsterdam, The Netherlands) covered with fibronectin/gelatin (Merck KGaA, Darmstadt, Germany) in a humidified incubator at 37 °C and 5% CO2.
Changes in Ca^2+ concentration were measured on a multiwell plate reader TECAN Spark 20M using FLIPR 6 Calcium Assay Kit from Molecular Devices (Molecular Devices LLC, München, Germany) at 37 °C. The 1000 × stock solutions of the test compounds were prepared in DMSO. 100 µl solution of test compound in Tyrode's solution containing FLIPR Calcium 6 dye was incubated for 2 hours at 37°C and 5% COz in a humidified incubator. The time courses were recorded in each well. Fluorescence was evoked at 485 nm excitation wavelength and read out in a bottom-read mode at 525 nm. Data were recorded every 2 s, exposure - 20 flashes, excitation bandwidth - 10 nm, emission bandwidth - 15 nm. To initiate Ca^2+ influx, 25 µl of 50 mM caffeine solution in Tyrode's solution containing 2 mM CaCl2 was injected in each well (speed 100 µl/s) at 10 s time point, resulting in 10 mM final concentration in the well. The differences between the caffeine induced peak minus basal fluorescence, ΔFCaff, were taken for the analysis. The Tyrode's solution + 0.1 v/v% DMSO was used as a control. The dose response curves were calculated using the software package GraphPad Prism version 8.3.1. All data are presented as mean ± S.D. from 8 independent experiments. Y=Bottom + (Top-Bottom)/(1+10^((LogEC50-X)*HillSlope)) was used where HillSlope describes the steepness of the curve, Top and Bottom are plateaus in the units of the Y axis.
The SERCA2a activity of the compounds was confirmed in two orthogonal biochemical assays: caffeine-induced Ca^2+ release assay and nicotinamide adenine dinucleotide (NADH) assay on microsomal membrane vesicles from mouse heart ventricles (mouse SER) and HEK-293T cells (HEK-293 ER). The effect of caffeine-induced Ca^2+ release in HL-1 cells, immortalized mouse cardiomyocytes, treated with the cytosolic Ca^2+ indicator FLIPR Calcium 6 (Molecular Devices) was investigated.
When caffeine binds to the RyR channel, it interacts with specific amino acids of the protein, and this interaction causes conformational changes in the protein's structure [A. des Georges, O. B. Clarke, R. Zalk, Q. Yuan, K. J. Condon, R. A. Grassucci, W. A. Hendrickson, A. R. Marks, J. Frank, Structural Basis for Gating and Activation of RyR1. Cell 2016, 167, 145 - 157.e17]. This opens the RyR2 channel pore, enabling the mass release of calcium ions from the SER Ca^2+ store.

This note sets out measurements from patent EP4548971A1, “1,4-BENZOTHIAZEPINES AND RELATED COMPOUNDS WITH CYCLOPROPANOL GROUPS AS MULTI-TARGETED DRUGS” (Georg-August-Universität Göttingen Stiftung Öffentlichen …, priority 2023, dated 2025).

Structures are written as SMILES. “Also recorded” adds a separate entry of the source.

T1 sequence (O55143 1-998 isoform O55143-2): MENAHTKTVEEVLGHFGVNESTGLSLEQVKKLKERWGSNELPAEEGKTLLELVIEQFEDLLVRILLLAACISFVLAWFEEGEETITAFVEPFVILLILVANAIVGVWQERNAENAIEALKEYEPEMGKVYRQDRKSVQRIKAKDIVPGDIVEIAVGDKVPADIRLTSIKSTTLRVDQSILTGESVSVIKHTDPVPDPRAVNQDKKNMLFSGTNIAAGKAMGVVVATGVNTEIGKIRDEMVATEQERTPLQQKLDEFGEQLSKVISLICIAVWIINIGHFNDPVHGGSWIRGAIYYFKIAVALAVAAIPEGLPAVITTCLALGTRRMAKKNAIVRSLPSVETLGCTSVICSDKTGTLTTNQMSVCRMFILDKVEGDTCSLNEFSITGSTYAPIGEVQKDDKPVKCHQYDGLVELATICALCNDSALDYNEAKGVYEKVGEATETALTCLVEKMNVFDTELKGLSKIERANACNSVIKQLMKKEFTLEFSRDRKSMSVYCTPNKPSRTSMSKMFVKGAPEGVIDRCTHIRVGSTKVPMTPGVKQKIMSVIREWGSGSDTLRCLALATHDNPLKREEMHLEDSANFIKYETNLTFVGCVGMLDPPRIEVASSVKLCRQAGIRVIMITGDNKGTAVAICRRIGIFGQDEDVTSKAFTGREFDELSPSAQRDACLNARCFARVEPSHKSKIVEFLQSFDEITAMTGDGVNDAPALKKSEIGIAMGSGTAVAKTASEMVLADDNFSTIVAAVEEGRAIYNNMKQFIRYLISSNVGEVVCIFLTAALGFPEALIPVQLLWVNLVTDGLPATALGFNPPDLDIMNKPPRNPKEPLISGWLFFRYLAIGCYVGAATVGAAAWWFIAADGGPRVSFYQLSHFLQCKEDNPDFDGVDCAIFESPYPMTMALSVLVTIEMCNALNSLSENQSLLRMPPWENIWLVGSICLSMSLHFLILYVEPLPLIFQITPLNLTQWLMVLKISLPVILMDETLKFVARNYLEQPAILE

In data set [1], `COc1ccc2c(c1)CN(CCCCC1(O)CC1)CCS2` [Compound 13d, 1-(4-(7-methoxy-2,3-dihydrobenzo[1,4-f]thiazepin-4(5H)-yl)butyl)cyclopropan-1-ol] displayed a Viability of 95%. Moreover, in data set [2], the “Pe rating in words (low / medium / high; poor)” value is recorded as “high” and the Pe is 3.6 10^-6 cm/s. Moreover, in data set [3], the “SERCA2a HL-1 effect class” value is reported as “+” and the “effect in caffeine-induced Ca^2+ release assay, in words” value (from here on “effect … in words”) is reported as “least efficacious; also recorded: no saturation effect at concentrations up to 50 µM; also recorded: slight”.
As for `COc1ccc(OCCCNCCCCC2(O)CC2)cc1` [Compound 13b, 1-(4-((3-(4-methoxyphenoxy)propyl)amino)butyl)cyclopropan-1-ol], the Viability in data set [1] amounted to 100%. Moreover, in data set [2], the “Pe rating in words (low / medium / high; poor)” value was “high” and the Pe is given as 4.0 10^-6 cm/s. Besides, in data set [3], the “SERCA2a HL-1 effect class” value is recorded as “++” and the EC50 – broadly, the concentration that produces a half-maximal response – amounted to 8.6 µM.
In turn, `COc1ccc2c(c1)CN(CCCCN(CCCCC1(O)CC1)CCCCC1(O)CC1)CCS2` [Compound 14a, 1,1'-(((4-(7-Methoxy-2,3-dihydrobenzo[1,4-f]thiazepin-4(5H)-yl)butyl)azanediyl)bis(butane-4,1-diyl))bis(cyclopropan-1-ol)] showed a Viability in data set [1] of 80%. In data set [2], the “Pe rating in words (low / medium / high; poor)” value is “poor permeability and low”; the Pe is reported as 0.6 10^-6 cm/s. In addition, in data set [3], the “SERCA2a HL-1 effect class” value is “++” and the EC50 was determined as 9.2 µM.
In data set [1], `COc1ccc2c(c1)CN(Cc1ccc(C(=O)O)cc1)CCS2` [ARM210, reference compound] registered a Viability of 90%. For the same compound, in data set [2], the “Pe rating in words (low / medium / high; poor)” value is reported as “high” and the Pe is reported as 6.8 10^-6 cm/s. In data set [3], the “SERCA2a HL-1 effect class” value is “+” and the “effect … in words” value was “clear concentration-dependent effect”.
`COc1ccc(SCCCNCCCCC2(O)CC2)cc1` [Compound 13c, 1-(4-((3-((4-Methoxyphenyl)thio)propyl)amino)butyl)cyclopropan-1-ol] came in with a Viability in data set [1] of 73%. Further, in data set [2], the “Pe rating in words (low / medium / high; poor)” value is “high” and the Pe is recorded as 6.9 10^-6 cm/s. In addition, in data set [3], the “SERCA2a HL-1 effect class” value is reported as “++” and the concentration for a half-maximal effect (EC50) is 7.6 µM.
With `COc1ccc(SCCCN(CCCCC2(O)CC2)CCCCC2(O)CC2)cc1` [Compound 14c, 1,1'-(((3-((4-Methoxyphenyl)thio)propyl)azanediyl)bis(butane-4,1-diyl))bis(cyclopropan-1-ol)], the Viability in data set [1] is recorded as 90%. In data set [2], the “Pe rating in words (low / medium / high; poor)” value is recorded as “high” and the Pe is recorded as 3.6 10^-6 cm/s. Moreover, in data set [3], the “SERCA2a HL-1 effect class” value was “+++”; the “effect … in words” value was “most efficacious”; the EC50 amounted to 10.9 µM.
Regarding `COc1ccc2c(c1)CN(CCCCNCCCCC1(O)CC1)CCS2` [Compound 13a, 1-(4-((4-(7-Methoxy-2,3-dihydrobenzo[1,4-f]-thiazepin-4(5H)-yl)butyl)amino)butyl)cyclopropan-1-ol], the Viability in data set [1] is given as 84%. In addition, in data set [2], the “Pe rating in words (low / medium / high; poor)” value was “poor permeability and low”; the Pe is listed as 0.8 10^-6 cm/s. In addition, in data set [3], the “SERCA2a HL-1 effect class” value is reported as “+”; the “effect … in words” value is listed as “most potent”; the EC50 came out at 2.2 µM.
`COc1ccc2c(c1)CN(C(=O)C(=O)O)CCS2` [Compound S36, reference compound] registered a Viability in data set [1] of 94%. Further, in data set [2], the “Pe rating in words (low / medium / high; poor)” value is “poor permeability and low”; the Pe is reported as 1.0 10^-6 cm/s. In data set [3], the “SERCA2a HL-1 effect class” value was “-” and the “effect … in words” value is recorded as “no concentration dependent effect”.
